Laboratory results reported in patent publication US7070978B2, “Method for expressing and purifying proteins using budded baculovirus” (Toudai TLO, Ltd., priority 2001, dated 2006).

Target: S1P (Homo sapiens, UniProt Q14703)
Conditions: 10 mM EDTA; SREBP2-BV + S1P-BV, 5 mM calcium, 37° C. for 12 hours, Western blot with anti-serum R004
Protocol: Sf9 cells were infected with recombinant viruses of S1P or SREBP at MOI 5. 72 hours later, the BV fraction was recovered by centrifugation as in Examples 1 and 2, and then suspended in TBS buffer (10 mM Tris, 150 mM NaCl, pH7.5). BV suspended in TBS was subjected to a protein determination with a protein determination kit (Bio-Rad). Reaction solutions of SREBP2-BV as a substrate and S1P-BV as an enzyme were prepared to have respective final concentrations of 10 μg per reaction solution. In addition, calcium ions required for activation of S1P were added to the reaction solution at a concentration, as calcium acetate, which enables to measure activity. Calcium, EDTA (pH7.4) and EGTA (pH7.4) were added to BV solution, and then added with TBS buffer (pH7.4) to a reaction volume of 20 μl, followed by incubation at 37° C. for 12 hours. Following reaction, the solution was subjected to heat treatment with 5×SDS sample buffer at 95° C. for 10 minutes, subjected to 8% SDS-PAGE and Western blot using rabbit anti-serum R004 against the amino terminal of SREBP2.
BV expressing SREBP or S1P was mixed, incubated at 37° C. for 12 hours, and then allowed to react in the presence of 5 mM calcium.

Chain of S1P (Q14703 187-1052): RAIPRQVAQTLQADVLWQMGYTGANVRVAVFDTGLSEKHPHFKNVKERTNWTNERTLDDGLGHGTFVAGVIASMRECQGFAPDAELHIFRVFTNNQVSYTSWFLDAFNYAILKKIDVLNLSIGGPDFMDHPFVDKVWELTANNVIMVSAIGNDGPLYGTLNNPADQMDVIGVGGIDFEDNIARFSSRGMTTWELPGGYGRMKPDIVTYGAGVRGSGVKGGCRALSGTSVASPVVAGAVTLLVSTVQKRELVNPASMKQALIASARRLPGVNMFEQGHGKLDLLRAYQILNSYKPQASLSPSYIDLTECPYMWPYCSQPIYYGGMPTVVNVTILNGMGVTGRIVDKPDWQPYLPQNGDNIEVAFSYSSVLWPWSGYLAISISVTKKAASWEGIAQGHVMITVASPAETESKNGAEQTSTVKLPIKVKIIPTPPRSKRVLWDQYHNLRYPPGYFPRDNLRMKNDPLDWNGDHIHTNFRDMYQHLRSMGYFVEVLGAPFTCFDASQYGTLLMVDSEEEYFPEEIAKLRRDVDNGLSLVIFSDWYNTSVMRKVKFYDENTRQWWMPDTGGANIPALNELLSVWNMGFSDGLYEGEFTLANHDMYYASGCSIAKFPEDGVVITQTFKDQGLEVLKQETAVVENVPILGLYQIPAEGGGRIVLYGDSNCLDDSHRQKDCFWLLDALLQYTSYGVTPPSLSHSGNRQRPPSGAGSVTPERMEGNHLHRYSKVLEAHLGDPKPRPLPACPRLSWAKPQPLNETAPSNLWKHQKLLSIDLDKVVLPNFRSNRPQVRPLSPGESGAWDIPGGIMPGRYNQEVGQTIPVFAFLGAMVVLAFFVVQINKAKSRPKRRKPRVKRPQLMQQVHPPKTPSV

O=C(O)CN(CCN(CC(=O)O)CC(=O)O)CC(=O)O [EDTA]
inhibition of degradation (cleavage) of SREBP2 by S1P: completely inhibited
